Assay results from publication PMC4303209, “A novel phosphatidylinositol 3-kinase (PI3K) inhibitor directs a potent FOXO-dependent, p53-independent cell cycle arrest phenotype characterized by the differential induction of a subset of FOXO-regulated genes” (Breast Cancer Research : BCR, 2014).

Test system: MCF-7 breast cancer cells
Assay: Microarray gene expression analysis (Agilent whole human genome 4 x 44K; compound vs DMSO, LIMMA log2 fold change)
Type: cell-based
Conditions: Apoptosis genes

Structure (SMILES): Cn1ncc2c(N3CCOCC3)nc(-c3cccc(O)c3)nc21 [ETP-45658]
- ITGB3BP log2FC (Gene 23421): 0.773
- RYBP log2FC (Gene 23429): 0.520
- HEY2 log2FC (Gene 23493): -0.060
- SCRIB log2FC (Gene 23513): -0.165
- CLCF1 log2FC (Gene 23529): -0.993
- PRAME log2FC (Gene 23532): -0.401
- DDAH2 log2FC (Gene 23564): 0.126
- ZNF346 log2FC (Gene 23567): 0.167
- CASP14 log2FC (Gene 23581): -0.095
- NUP62 log2FC (Gene 23636): -0.576
- PPP1R15A log2FC (Gene 23645): 1.011
- AIPL1 log2FC (Gene 23746): -0.252
- FKBP8 log2FC (Gene 23770): -0.132
- BCL2L13 log2FC (Gene 23786): 0.179
- MTCH1 log2FC (Gene 23787): 0.077
- NGEF log2FC (Gene 25791): 0.588
- SPDEF log2FC (Gene 25803): -0.326
- TNFAIP8 log2FC (Gene 25816): 0.706
- PRDX5 log2FC (Gene 25824): -0.074
- BRMS1 log2FC (Gene 25855): -0.580
- SIN3A log2FC (Gene 25942): 0.788
- HIGD1A log2FC (Gene 25994): 0.198
- SERBP1 log2FC (Gene 26135): 0.313
- NOC2L log2FC (Gene 26155): -0.773
- TIAM2 log2FC (Gene 26230): 0.410
- AATF log2FC (Gene 26574): -0.362
- GREM1 log2FC (Gene 26585): -0.311
- CKAP2 log2FC (Gene 26586): 0.829
- CYFIP2 log2FC (Gene 26999): -0.154
- NGFRAP1 log2FC (Gene 27018): 0.134
- ANKRD1 log2FC (Gene 27063): 0.342
- GHITM log2FC (Gene 27069): 0.501
- BBC3 log2FC (Gene 27113): 2.148
- CIDEB log2FC (Gene 27141): -0.076
- GLS2 log2FC (Gene 27165): 0.175
- TNFRSF21 log2FC (Gene 27242): -1.178
- PDCD4 log2FC (Gene 27250): 1.281
- KLHL20 log2FC (Gene 27252): 0.174
- CECR2 log2FC (Gene 27443): -0.568
- DBNL log2FC (Gene 28988): -0.399
- HIPK2 log2FC (Gene 28996): -0.166
- SAP30BP log2FC (Gene 29115): -0.314
- LGALS13 log2FC (Gene 29124): -0.151
- CARD10 log2FC (Gene 29775): -0.324
- SENP1 log2FC (Gene 29843): 0.416
- TFPT log2FC (Gene 29844): -0.708
- PNMA3 log2FC (Gene 29944): 0.559
- UBQLN1 log2FC (Gene 29979): 0.311
- ERO1L log2FC (Gene 30001): 0.255
- SH3KBP1 log2FC (Gene 30011): 0.491
- KCNIP3 log2FC (Gene 30818): 0.159
- RRM2B log2FC (Gene 50484): 0.508
- G0S2 log2FC (Gene 50486): -0.063
- NOX4 log2FC (Gene 50507): -0.318
- CHST11 log2FC (Gene 50515): -0.798
- ARHGEF4 log2FC (Gene 50649): 0.114
- ARHGEF3 log2FC (Gene 50650): 0.584
- GLRX2 log2FC (Gene 51022): -0.287
- RPS27L log2FC (Gene 51065): 0.265
- APIP log2FC (Gene 51074): 0.142
- NDUFA13 log2FC (Gene 51079): -0.190
- GAL log2FC (Gene 51083): -0.531
- SH3GLB1 log2FC (Gene 51100): 0.592
- APH1A log2FC (Gene 51107): -0.202
- UTP11L log2FC (Gene 51118): -0.844
- IER3IP1 log2FC (Gene 51124): 0.463
- ANGPTL4 log2FC (Gene 51129): -0.967
- ING4 log2FC (Gene 51147): 1.465
- LEF1 log2FC (Gene 51176): -0.842
- BFAR log2FC (Gene 51283): 0.564
- PLAC8 log2FC (Gene 51316): -0.141
- TNFRSF12A log2FC (Gene 51330): -0.850
- ANGPT4 log2FC (Gene 51378): -0.106
- DDX41 log2FC (Gene 51428): -0.212
- GULP1 log2FC (Gene 51454): 1.616
- TRIAP1 log2FC (Gene 51499): -0.820
- ZC3HC1 log2FC (Gene 51530): 0.230
- PIAS4 log2FC (Gene 51588): -0.216
- PIGT log2FC (Gene 51604): 0.174
- TAF9B log2FC (Gene 51616): 0.427
- PTRH2 log2FC (Gene 51651): -0.336
- WWOX log2FC (Gene 51741): -0.809
- SIX4 log2FC (Gene 51804): 0.564
- IL20RA log2FC (Gene 53832): 0.097
- CYCS log2FC (Gene 54205): -0.446
- WNT4 log2FC (Gene 54361): -0.709
- DNAJC10 log2FC (Gene 54431): 0.727
- ZFAND6 log2FC (Gene 54469): 0.430
- ADAMTSL4 log2FC (Gene 54507): -0.301
- DDIT4 log2FC (Gene 54541): -0.893
- ING3 log2FC (Gene 54556): 0.777
- RRN3 log2FC (Gene 54700): -0.293
- AHI1 log2FC (Gene 54806): 0.585
- QRICH1 log2FC (Gene 54870): -0.061
- TMEM161A log2FC (Gene 54929): -0.567
- PHIP log2FC (Gene 55023): 1.243
- USP47 log2FC (Gene 55031): 0.762
- OXR1 log2FC (Gene 55074): 0.502
- UACA log2FC (Gene 55075): 0.817
- IFT57 log2FC (Gene 55081): 0.552
- XKR8 log2FC (Gene 55113): 0.287
- SHQ1 log2FC (Gene 55164): -0.250
- FAIM log2FC (Gene 55179): 0.209
- MAP1S log2FC (Gene 55201): -0.375
- ATAD3A log2FC (Gene 55210): -0.394
- STEAP3 log2FC (Gene 55240): -0.569
- RHOT1 log2FC (Gene 55288): 0.620
- RFK log2FC (Gene 55312): 0.519
- PARL log2FC (Gene 55486): -0.133
- TNFRSF19 log2FC (Gene 55504): -0.110
- CCAR1 log2FC (Gene 55749): 0.836
- PCID2 log2FC (Gene 55795): 0.322
- RNF130 log2FC (Gene 55819): 0.142
- EAF2 log2FC (Gene 55840): 0.438
- PSENEN log2FC (Gene 55851): -0.304
- BCAP29 log2FC (Gene 55973): 0.449
- TEX11 log2FC (Gene 56159): -0.066
- CTNNBL1 log2FC (Gene 56259): -0.141
- DIABLO log2FC (Gene 56616): -0.193
- ASAH2 log2FC (Gene 56624): -0.191
- TRIM39 log2FC (Gene 56658): -0.084
- BARHL1 log2FC (Gene 56751): -0.269
- FMN2 log2FC (Gene 56776): 0.105
- SPHK2 log2FC (Gene 56848): -0.628
- C8orf4 log2FC (Gene 56892): -0.080
- MEIS3 log2FC (Gene 56917): -0.061
- DUSP22 log2FC (Gene 56940): 0.419
- CIAPIN1 log2FC (Gene 57019): -0.388
- PCBP4 log2FC (Gene 57060): -0.519
- AVEN log2FC (Gene 57099): -0.627
- CAMK1D log2FC (Gene 57118): -0.141
- RTN4 log2FC (Gene 57142): 0.129
- PAK7 log2FC (Gene 57144): 0.396
- BIRC6 log2FC (Gene 57448): 0.155
- TAOK1 log2FC (Gene 57551): 0.386
- SEMA6A log2FC (Gene 57556): -0.108
- SH3RF1 log2FC (Gene 57630): -0.399
- USP28 log2FC (Gene 57646): 0.268
- GPAM log2FC (Gene 57678): 0.310
- CHD8 log2FC (Gene 57680): -0.199
- TRIB3 log2FC (Gene 57761): 0.343
- NGB log2FC (Gene 58157): -0.410
- RBM25 log2FC (Gene 58517): 0.406
- SAV1 log2FC (Gene 60485): 0.676
- PROK2 log2FC (Gene 60675): -0.050
- ELMO2 log2FC (Gene 63916): 0.581
- CIDEC log2FC (Gene 63924): 0.346
- FIGNL1 log2FC (Gene 63979): -0.206
- PERP log2FC (Gene 64065): 0.653
- MOAP1 log2FC (Gene 64112): 1.318
- RRAGC log2FC (Gene 64121): 1.860
- IFIH1 log2FC (Gene 64135): 0.885
- ZMAT3 log2FC (Gene 64393): -0.105
- ATG3 log2FC (Gene 64422): 0.283
- SUDS3 log2FC (Gene 64426): -0.126
- MICAL1 log2FC (Gene 64780): -0.454
- PLEKHG2 log2FC (Gene 64857): -0.832
